Laboratory results taken from patent US12187728B2 (Raze Therapeutics, Inc., priority 2015, dated 2025).

Molecular target: T1, Human MTHFD2 (Homo sapiens, UniProt P13995)
T1 construct: residues 36-350 in Uniport ID P13995; His6 (N); made in house; host or cells: E. coli
T1 sequence (P13995 36-350): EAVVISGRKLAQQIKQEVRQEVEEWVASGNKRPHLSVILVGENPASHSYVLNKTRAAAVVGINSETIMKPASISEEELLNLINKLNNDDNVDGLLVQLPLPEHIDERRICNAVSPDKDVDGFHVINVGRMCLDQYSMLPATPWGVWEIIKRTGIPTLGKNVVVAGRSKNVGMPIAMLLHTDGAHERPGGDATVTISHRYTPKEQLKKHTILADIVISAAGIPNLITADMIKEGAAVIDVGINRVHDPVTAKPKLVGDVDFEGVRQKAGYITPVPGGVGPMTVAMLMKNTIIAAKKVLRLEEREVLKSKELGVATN
Assay: MTHFD2 Activity Assay (dehydrogenase activity, diaphorase/resazurin coupled fluorescence)
Type: biochemical
Details: inhibitory activity (IC50 and/or binding constant); 0.2 nM MTHFD2, 11 concentrations
Excerpt: Human MTHFD2 (residues 36-350 in Uniport ID P13995) was expressed as an N-terminal His6 tagged protein and purified in E. coli using nickel capture followed by size-exclusion chromatography.
MTHFD2 dehydrogenase activity oxidizes methylene tetrahyrofolate to methenyl-tetrahydrofolate with the concomitant reduction of NAD to NADH. MTHFD2 dehydrogenase activity was followed by coupling the generation of NADH to diaphorase catalyzed […] of resazurin to fluorescent resorufin. Briefly, control (DMSO) or compound was incubated with 0.2 nM MTHFD2 for 15 minutes in 10.5 μl assay buffer containing 100 mM Hepes, pH 8.0, 5 mM MgCl2, 5 mM KH2PO4, 0.05% BSA, 0.01% Tween-20 in a 384 well Griener, low volume, black plate. 10 μl of substrate buffer containing 70 μM CH2-THF, 1 mM NAD^+, 100 μM Resazurin and 0.42 mg/ml diaphorase was then added to initiate the reaction and the reaction plate was incubated for 30 minutes. 5 μl of 250 mM EDTA was then added to each well to stop the reaction and MTHFD2 activity was quantified by measuring resorufin fluorescence emission at 598 nm following excitation at 525 nm. Activity in positive control wells containing the complete reaction mixture and DMSO alone was set to 100% while activity in negative control wells with the complete reaction mix without MTHFD2 was set to 0%. 11 concentrations of each compound were tested and the fluorescent data at each concentration was normalized to the positive and negative controls and represented as % inhibition. Median inhibitory concentration (IC50) was calculated by fitting % inhibition at each concentration to a 4 parameter logistic fit equation using Graphpad Prizm.
The compound numbers correspond to the compound numbers in Table A (i.e., the example numbers).

IC50	Compound
10 to 1000 nM	Cc1ccc2[nH]c(Cn3c(=O)c4c(nc(-n5nccc5N)n4C)n(C)c3=O)cc2c1 [Example 218, 8-(5-amino-1H-pyrazol-1-yl)-3,7-dimethyl-1-((5-methyl-1H-indol-2-yl)methyl)-1H-purine-2,6(3H,7H)-dione]
10 to 1000 nM	Cn1c(Nc2ccncc2)nc2c1c(=O)n(Cc1cc3c(Cl)cccc3[nH]1)c(=O)n2C1CC1 [Example 466, 1-[(4-chloro-1H-indol-2-yl)methyl]-3-cyclopropyl-7-methyl-8-(4-pyridylamino)purine-2,6-dione]
10 to 1000 nM	Cn1c(C2CCCCN2)nc2c1c(=O)n(Cc1cc3c(Cl)cccc3[nH]1)c(=O)n2C (centres unmarked) [Example 430, 1-((4-chloro-1H-indol-2-yl)methyl)-3,7-dimethyl-8-(piperidin-2-yl)-3,7-dihydro-1H-purine-2,6-dione]
10 to 1000 nM	Cn1c(C(N)C2CCC2)nc2c1c(=O)n(Cc1cc3c(Cl)cccc3[nH]1)c(=O)n2C (centres unmarked) [Example 443, 8-[amino(cyclobutyl)methyl]-1-[(4-chloro-1H-indol-2-yl)methyl]-3,7-dimethyl-purine-2,6-dione]
1000 to 5000 nM	Cc1ccc2[nH]c(Cn3c(=O)c4c(nc(CCN5CCOCC5)n4C)n(C)c3=O)cc2c1 [Example 227, 3,7-dimethyl-1-((5-methyl-1H-indol-2-yl)methyl)-8-(2-morpholinoethyl)-1H-purine-2,6(3H,7H)-dione]
10 to 1000 nM	Cn1c(CCN2CCOCC2)nc2c1c(=O)n(Cc1cc3ccccc3[nH]1)c(=O)n2C [Example 226, 1-((1H-indol-2-yl)methyl)-3,7-dimethyl-8-(2-morpholinoethyl)-1H-purine-2,6(3H,7H)-dione]
10 to 1000 nM	Cn1c(Nc2ccccn2)nc2c1c(=O)n(Cc1cc3c(Cl)cccc3[nH]1)c(=O)n2C [Example 302, 1-((4-chloro-1H-indol-2-yl)methyl)-3,7-dimethyl-8-(pyridin-2-ylamino)-1H-purine-2,6(3H, 7H)-dione]
10 to 1000 nM	Cn1c([C@H](N)Cc2cccnc2)nc2c1c(=O)n(Cc1cc3c(Cl)cccc3[nH]1)c(=O)n2C [Example 470, (R)-8-(1-amino-2-(pyridin-3-yl)ethyl)-1-((4-chloro-1H-indol-2-yl)methyl)-3,7-dimethyl-1H-purine-2,6(3H,7H)-dione]
10 to 1000 nM	Cn1c(C(O)c2ccccc2)nc2c1c(=O)n(Cc1cc3c(Cl)cccc3[nH]1)c(=O)n2C (centres unmarked) [Example 388, 1-((4-chloro-1H-indol-2-yl)methyl)-8-(hydroxy(phenyl)methyl)-3,7-dimethyl-1H-purine-2,6(3H,7H)-dione]
> 10000 nM	Cn1c(NC2CC(F)(F)C2)nc2c1c(=O)n(Cc1ccc(C(F)(F)F)cc1)c(=O)n2C [Example 145, 8-(3,3-difluorocyclobutylamino)-3,7-dimethyl-1-(4-(trifluoromethyl)benzyl)-1H-purine-2,6(3H,7H)-dione]
> 10000 nM	Cn1c(NC[C@@H]2CCCO2)nc2c1c(=O)n(Cc1ccc(C(F)(F)F)cc1)c(=O)n2C [Example 105, (S)-3,7-dimethyl-8-((tetrahydrofuran-2-yl)methylamino)-1-(4-(trifluoromethyl)benzyl)-1H-purine-2,6(3H,7H)-dione]
10 to 1000 nM	Cn1c(Nc2ccnc([C@H]3C[C@H]3C(=O)O)c2)nc2c1c(=O)n(Cc1ccc(Cl)c(Cl)c1)c(=O)n2C (racemic) [Example 332, (±)-cis-2-(4-((1-(3,4-dichlorobenzyl)-3,7-dimethyl-2,6-dioxo-2,3,6,7-tetrahydro-1H-purin-8-yl)amino)pyridin-2-yl)cyclopropanecarboxylic acid]
1000 to 5000 nM	Cn1c(NCC2(O)CCCCC2)nc2c1c(=O)n(Cc1ccc(Cl)c(Cl)c1)c(=O)n2C [Example 106, 1-(3,4-dichlorobenzyl)-8-((1-hydroxycyclohexyl)methylamino)-3,7-dimethyl-1H-purine-2,6(3H,7H)-dione]
10 to 1000 nM	CC(N)c1nc2c(c(=O)n(Cc3ccc4c(C5CC5)cccc4c3)c(=O)n2C)n1C (centres unmarked) [Example 452, 8-(1-aminoethyl)-1-((5-cyclopropylnaphthalen-2-yl)methyl)-3,7-dimethyl-1H-purine-2,6(3H,7H)-dione]
10 to 1000 nM	Cn1c(Nc2ccc(C#N)nc2)nc2c1c(=O)n(Cc1cc3c(Cl)cccc3[nH]1)c(=O)n2C [Example 427, 5-(1-((4-chloro-1H-indol-2-yl)methyl)-3,7-dimethyl-2,6-dioxo-2,3,6,7-tetrahydro-1H-purin-8-ylamino)picolinonitrile]
10 to 1000 nM	Cn1c(N[C@H]2CC[C@@H](C(=O)O)C2)nc2c1c(=O)n(Cc1ccc3sccc3c1)c(=O)n2C [Example 87, (1R,3S)-3-{[1-(1-benzothiophen-5-ylmethyl)-3,7-dimethyl-2,6-dioxo-2,3,6,7-tetrahydro-1H-purin-8-yl]amino}cyclopentane-1-carboxylic acid]
1000 to 5000 nM	Cn1c(Nc2ncn[nH]2)nc2c1c(=O)n(Cc1cc3cc(Cl)ccc3[nH]1)c(=O)n2C [Example 207, 8-(1H-1,2,4-triazol-5-ylamino)-1-((5-chloro-1H-indol-2-yl)methyl)-3,7-dimethyl-1H-purine-2,6(3H,7H)-dione]
1000 to 5000 nM	Cn1c(NCc2cccnc2)nc2c1c(=O)n(Cc1ccc(Cl)c(Cl)c1)c(=O)n2C [Example 117, 1-(3,4-dichlorobenzyl)-3,7-dimethyl-8-(pyridin-3-ylmethylamino)-1H-purine-2,6(3H,7H)-dione]
10 to 1000 nM	Cn1c(Nc2ccc(C(F)(F)F)nc2)nc2c1c(=O)n(Cc1cc3c(Cl)cccc3[nH]1)c(=O)n2C [Example 382, 1-((4-chloro-1H-indol-2-yl)methyl)-3,7-dimethyl-8-(6-(trifluoromethyl)pyridin-3-ylamino)-1H-purine-2,6(3H,7H)-dione]
10 to 1000 nM	Cn1c(Nc2ccncc2)nc2c1c(=O)n(Cc1cc3ccc(Cl)cc3[nH]1)c(=O)n2C [Example 312, 1-((6-chloro-1H-indol-2-yl)methyl)-3,7-dimethyl-8-(pyridin-4-ylamino)-1H-purine-2,6(3H,7H)-dione]
10 to 1000 nM	COc1ccc2[nH]c(Cn3c(=O)c4c(nc(N[C@H]5CC[C@@H](O)C5)n4C)n(C)c3=O)cc2c1 [Example 182, 8-((1S,3R)-3-hydroxycyclopentylamino)-1-((5-methoxy-1H-indol-2-yl)methyl)-3,7-dimethyl-1H-purine-2,6(3H,7H)-dione]
10 to 1000 nM	CC(=O)NS(=O)(=O)c1ccc(Nc2nc3c(c(=O)n(Cc4cc5c(Cl)cccc5[nH]4)c(=O)n3C)n2C)cc1 [Example 390, N-((4-((1-((4-chloro-1H-indol-2-yl)methyl)-3,7-dimethyl-2,6-dioxo-2,3,6,7-tetrahydro-1H-purin-8-yl)amino)phenyl)sulfonyl)acetamide]
5000 to 10000 nM	Cn1c(N)nc2c1c(=O)n(Cc1ccc(Cl)c(Cl)c1)c(=O)n2C [Example 153, 8-amino-1-(3,4-dichlorobenzyl)-3,7-dimethyl-1H-purine-2,6(3H,7H)-dione]
1000 to 5000 nM	Cn1c(Nc2ccnc(C(F)(F)F)c2)nc2c1c(=O)n(Cc1cc3c(Cl)cccc3[nH]1)c(=O)n2C [Example 334, 1-[(4-chloro-1H-indol-2-yl)methyl]-8-[(2-trifluoromethyl-4-pyridyl)amino]-3,7-dimethyl-purine-2,6-dione]
10 to 1000 nM	Cn1c(Nc2cccc(C(=O)O)c2)nc2c1c(=O)n(Cc1ccc(Cl)c(Cl)c1)c(=O)n2C [Example 286, 3-((1-(3,4-dichlorobenzyl)-3,7-dimethyl-2,6-dioxo-2,3,6,7-tetrahydro-1H-purin-8-yl)amino)benzoic acid]
10 to 1000 nM	Cn1c(NCC(N)=O)nc2c1c(=O)n(Cc1cc3c(Cl)cccc3[nH]1)c(=O)n2C [Example 360, 2-(1-((4-chloro-1H-indol-2-yl)methyl)-3,7-dimethyl-2,6-dioxo-2,3,6,7-tetrahydro-1H-purin-8-ylamino)acetamide]
1000 to 5000 nM	Cn1c(Nc2cccc(-c3ccccc3)n2)nc2c1c(=O)n(Cc1cc3c(Cl)cccc3[nH]1)c(=O)n2C [Example 399, 1-[(4-chloro-1H-indol-2-yl)methyl]-3,7-dimethyl-8-[(6-phenyl-2-pyridyl)amino]purine-2,6-dione]
10 to 1000 nM	Cn1c(-n2nccc2N)nc2c1c(=O)n(Cc1cc3ccccc3[nH]1)c(=O)n2C [Example 217, 1-((1H-indol-2-yl)methyl)-8-(5-amino-1H-pyrazol-1-yl)-3,7-dimethyl-1H-purine-2,6(3H,7H)-dione]
1000 to 5000 nM	COCCNc1nc2c(c(=O)n(Cc3ccc(Cl)c(Cl)c3)c(=O)n2C)n1C [Example 273, 1-[(3,4-dichlorophenyl)methyl]-8-(2-methoxyethylamino)-3,7-dimethyl-purine-2,6-dione]
